Marks after values point to notes of the source that are not given here.
How the values were obtained:
ovine COX-1 = biological target: T1, ovine COX-1 (Ovis aries, UniProt P05979); test: In vitro COX inhibitor screening assay (EIA kit, Cayman), COX-1; format: biochemical; conditions: mean of two determinations, enzyme kit, read-out: COX1 IC50
T1 construct: purchased Cayman Chemical, Ann Arbor, MI, USA 560131
T1 sequence (P05979 25-600): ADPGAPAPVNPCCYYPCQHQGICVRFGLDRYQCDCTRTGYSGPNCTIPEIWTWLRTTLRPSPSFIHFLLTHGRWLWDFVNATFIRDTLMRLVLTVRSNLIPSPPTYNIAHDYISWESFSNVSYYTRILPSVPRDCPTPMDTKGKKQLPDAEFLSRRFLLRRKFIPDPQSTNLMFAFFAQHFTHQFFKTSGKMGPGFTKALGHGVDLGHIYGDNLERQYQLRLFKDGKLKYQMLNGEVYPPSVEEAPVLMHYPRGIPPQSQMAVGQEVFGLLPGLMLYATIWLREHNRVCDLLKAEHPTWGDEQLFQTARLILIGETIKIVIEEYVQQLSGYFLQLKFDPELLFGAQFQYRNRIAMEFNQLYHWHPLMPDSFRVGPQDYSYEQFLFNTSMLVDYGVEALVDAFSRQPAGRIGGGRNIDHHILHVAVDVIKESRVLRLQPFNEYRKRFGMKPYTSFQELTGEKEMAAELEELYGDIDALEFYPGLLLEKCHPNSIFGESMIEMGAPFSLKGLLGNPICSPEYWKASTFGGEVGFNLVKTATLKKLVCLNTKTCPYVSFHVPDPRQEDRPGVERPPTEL
Description: (§1) Furthermore, the selectivity index for COX-2 (COX-1 IC50 / COX-2 IC50) was calculated for the compounds.

[1] = test system: acetic acid-induced writhing in mice; test: Acetic acid-induced writhing test (analgesic activity); format: in vivo; conditions: 10 mg/kg p.o., n = 5; for Writhing Number in 20 min (Mean ± SEM): acetic acid 1 h after dosing; for Analgesic Activity (% protection): writhing test
In short: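 Mice of 25–30 g, fasted 8 h, given compound at 10 mg/kg p.o., five animals per group. One hour later, 1% acetic acid i.p. (0.1 mL/10 g); writhes counted over 20 min. Percent protection calculated against the saline control group.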

[2] = test system: carrageenan-induced paw edema in rats; test: Carrageenan-induced paw edema (anti-inflammatory activity); format: in vivo; conditions: 10 mg/kg oral; for % Change in Paw Height (Mean ± SEM): n = 5
In short: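 Albino rats weighing 150–180 g, in groups of five, received test compounds orally at 10 mg/kg; one hour later 0.1 mL of 1% carrageenan was injected into the left hind paw. Paw inflammation height was measured by digital caliber plethysmometer at 0, 1, 2 and 3 h, expressed as percentage increase relative to the uninjected right paw, with percentage edema inhibition versus control calculated at 3 h.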

human recombinant COX-2 = biological target: T2, human recombinant COX-2 (Homo sapiens, UniProt P35354); test: In vitro COX inhibitor screening assay (EIA kit, Cayman), COX-2; format: biochemical; conditions: for COX2 (SI) selectivity index: COX-1 IC50 / COX-2 IC50; for IC50: COX-2, mean of two determinations, enzyme kit, read-out: COX2 IC50
T2 construct: purchased Cayman Chemical, Ann Arbor, MI, USA 560131
T2 sequence (P35354 18-604): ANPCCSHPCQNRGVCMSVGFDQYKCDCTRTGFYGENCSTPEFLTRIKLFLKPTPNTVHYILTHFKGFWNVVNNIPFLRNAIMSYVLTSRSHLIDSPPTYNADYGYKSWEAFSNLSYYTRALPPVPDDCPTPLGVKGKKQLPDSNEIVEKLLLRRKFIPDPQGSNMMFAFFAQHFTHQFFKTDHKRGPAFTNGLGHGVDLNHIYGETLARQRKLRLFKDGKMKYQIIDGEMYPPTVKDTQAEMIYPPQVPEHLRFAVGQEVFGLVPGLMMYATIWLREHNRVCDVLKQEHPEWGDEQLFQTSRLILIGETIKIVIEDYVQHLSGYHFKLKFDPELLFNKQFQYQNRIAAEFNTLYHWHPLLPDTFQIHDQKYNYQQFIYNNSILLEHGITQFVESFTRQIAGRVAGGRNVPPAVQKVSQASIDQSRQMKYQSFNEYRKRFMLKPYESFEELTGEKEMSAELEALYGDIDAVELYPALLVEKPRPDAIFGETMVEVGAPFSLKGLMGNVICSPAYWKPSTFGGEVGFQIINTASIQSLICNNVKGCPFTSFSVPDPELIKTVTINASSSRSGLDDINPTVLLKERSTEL
Description: as §1

[3] = test system: interleukin-1 beta (IL-1 β); test: ELISA of serum interleukin-1 beta after paw edema test; format: in vivo, rats; conditions: rat serum at the end of the paw edema test, mean ± SEM, n = 5
Description: IL1 is one of the important inflammatory mediators and is used to confirm the anti-inflammatory activities of new anti-inflammatory compounds. At the end of the paw edema test, blood samples were collected from the orbital axis of the eye under light ether anesthesia. Sera were separated after centrifugation of blood at 5000 rpm for 15 min; the sera were stored at –80 °C until the ELISA assay was performed according to the manufacturer instructions.

SMILES	IC50 (ovine COX-1)	Writhing Number in 20 min (Mean ± SEM) [1]	Analgesic Activity (% protection) [1]	melting point	% Change in Paw Height (Mean ± SEM) ([2]; 1 hr after carrageenan)	% Change in Paw Height (Mean ± SEM) ([2]; 2 hr after carrageenan)	Anti-Inflammatory Activity (% Inhibition of Edema) ([2]; 3 hr after carrageenan)	% Change in Paw Height (Mean ± SEM) ([2]; 3 hr after carrageenan)	COX2 (SI) selectivity index (human recombinant COX-2)	IC50 (human recombinant COX-2)	IL-1 β Concentration [3]
COc1c2ccoc2cc2oc(C3=NC4=CC(=O)N5C(=O)C(=Cc6ccc(Cl)cc6)SC5N4C(=O)C(=Cc4ccc(Cl)cc4)O3)c(C)c12 (stereo not shown) [Compound 13b, 2,10-bis(4-chlorobenzylidene)-8-(4-methoxy-3-methylbenzo[1,2-b:5,4-b`]difuran-2-yl)-5H, 12aH-thiazolo[2’,3’:2,3]pyrimido[6,1-d][1,3,5]oxadiazepine-3,5,11(2H,10H)-trione]	5200 nM	29 ± 1.5 ^a	46 ± 1.6 ^a %	> 350 °C	0.23 ± 0.02 ^a %	0.18 ± 0.01 ^a %	63%	0.20 ± 0.02 ^a %	95	55 nM	35 ± 0.28 ^b Pg /mL
COc1ccc(C=C2OC(c3oc4cc5occc5c(OC)c4c3C)=NC3=CC(=O)N4C(=O)C(=Cc5ccc(OC)cc5)SC4N3C2=O)cc1 (stereo not shown) [Compound 13c, 8-(4-methoxy-3-methylbenzo[1,2-b:5,4-b`]difuran-2-yl)-2,10-bis(4-methoxybenzylidene)-5H,12aH-thiazolo[2’,3’:2,3]pyrimido[6,1-d][1,3,5]oxadiazepine-3,5,11(2H,10H)-trione]	5520 nM	31 ± 1.1 ^a	44 ± 0.85 ^a %	> 350 °C	0.25 ± 0.01 ^a %	0.19 ± 0.02 ^a %	61%	0.22 ± 0.02 ^a %	92	60 nM	37 ± 0.57 ^b Pg /mL
COc1c2occc2c(OC)c2c(C)c(C3=NC4=CC(=O)N5C(=O)C(=Cc6ccccc6)SC5N4C(=O)C(=Cc4ccccc4)O3)oc12 (stereo not shown) [Compound 13d, 2,10-di(benzylidene)-8-(4,8-dimethoxy-3-methylbenzo[1,2-b:5,4-b`]difuran-2-yl)-5H, 12aH -thiazolo[2’,3’:2,3]pyrimido[6,1-d][1,3,5]oxadiazepine-3,5,11(2H,10H)-trione]	5710 nM	32 ± 1.4 ^a	43 ± 1.90 ^a %	> 350 °C	0.26 ± 0.01 ^a %	0.20 ± 0.02 ^a %	60%	0.23 ± 0.02 ^a %	91	63 nM	38 ± 0.62 ^b Pg /mL
COc1c2occc2c(OC)c2c(C)c(C3=NC4=CC(=O)N5C(=O)C(=Cc6ccc(Cl)cc6)SC5N4C(=O)C(=Cc4ccc(Cl)cc4)O3)oc12 (stereo not shown) [Compound 13e, 2,10-bis(4-chlorobenzylidene)-8-(4,8-dimethoxy-3-methylbenzo[1,2-b:5,4-b`]difuran-2-yl)-5H,12aH-thiazolo[2’,3’:2,3]pyrimido[6,1-d][1,3,5]oxadiazepine-3,5,11(2H,10H)-trione]	5100 nM	28 ± 1.3 ^a	47 ± 1.7 ^a %	> 350 °C	0.22 ± 0.01 ^a %	0.17 ± 0.02 ^a %	64%	0.19 ± 0.02 ^a %	96	53 nM	34 ± 0.33 ^b Pg /mL
COc1ccc(C=C2OC(c3oc4c(OC)c5occc5c(OC)c4c3C)=NC3=CC(=O)N4C(=O)C(=Cc5ccc(OC)cc5)SC4N3C2=O)cc1 (stereo not shown) [Compound 13f, 8-(4,8-dimethoxy-3-methylbenzo[1,2-b:5,4-b`]difuran-2-yl)-2,10-bis(4-methoxybenzylidene)-5H,12aH-thiazolo[2’,3’:2,3]pyrimido[6,1-d][1,3,5]oxadiazepine-3,5,11(2H,10H)-trione]	5450 nM	30 ± 1.8 ^a	45 ± 0.95 ^a %	> 350 °C	0.24 ± 0.02 ^a %	0.18 ± 0.02 ^a %	62%	0.21 ± 0.01 ^a %	94	58 nM	36 ± 0.25 ^b Pg /mL

Source: paper PMC6982876, “Synthesis of Novel Benzodifuranyl; 1,3,5-Triazines; 1,3,5-Oxadiazepines; and Thiazolopyrimidines Derived from Visnaginone and Khellinone as Anti-Inflammatory and Analgesic Agents” (Molecules, 2020)
